Values of other authors, collected in US6916480B2, “Wiper containing a controlled-release anti-microbial agent” (Kimberly-Clark Worldwide, Inc., priority 1999, dated 2005).

Legend:
[1] = test system: E. Coli; conditions: according to most literature
[2] = test system: Salmonella spp.; conditions: according to most literature

For `[Ag]` [silver], the “silver content that can effectively kill microbes” value [1] is listed as 20 parts per billion (ppb) and the “silver content that can effectively kill microbes” value [2] is listed as 20 parts per billion (ppb).
